Assay results published in patent US20250129021A1, “SMALL MOLECULE PROTEIN SYNTHESIS MODULATORS” (Interdict Bio, Inc., priority 2023, published 2025).
Structures can show the parent of a compound that is named as a salt.

Key:
Format in all cases: biochemical
Details in all cases: HeLa S3 lysate, sfGFP/mCherry ratio, 2 hrs at 30° C.
KRAS G12D = assay: In vitro transcription-translation (IVTT) assay, KRAS G12D reporter
Excerpt: (§1) All reporter constructs have been cloned into the pT7CFE1-CHis plasmid (ThermoFisher #88860) using Gibson assembly procedures (NEB #E2611L). The parental pT7CFE1-CHis plasmid contains an EMCV IRES at the 5′UTR for translation initiation, a multiple-cloning site (MCS) for gene insertion, an optional C-terminal His-epitope tag, and polyA sequence in the 3′UTR to regulate mRNA stability. All reporters are designed to be inserted at the MCS to include a red fluorescent protein (mCherry), P2A self-cleaving peptide which releases the preceding mCherry protein product, and a fusion open reading frame containing a 3×FLAG epitope, a peptide sequence of interest (TEST), and green fluorescent protein (sfGFP).
(§2) Construct Plasmid Preparation: All plasmids are isolated from MACH1 cells (ThermoFisher) grown overnight in ampicillin-containing luria broth, and purified using ZymoPure Express Plasmid Midiprep Kit (Zymo Research). Constructs are sequenced verified and diluted to a working concentration of 110 ng/μL.
(§3) HeLa S3 Lysate Preparation: HeLa S3 cell pellets are acquired from Ipracell/Ipratech (Belgium) and shipped as 4 mL frozen cell pellets on dry ice for storage at −80° C. until use. The procedure for lysate preparation is as follows. Prepare 1× Lysis Buffer, cold and stored on ice:
(§4) Each preparation takes 8 cell pellets (4 ml packed volume each, approximately 1.0×10^9 cells per pellet). Thaw cell pellets from −80° C. on ice for 90 mins. Lay pellets horizontally on top of the ice and rotate every 30 mins to ensure even thawing. Once thawed, add 4 mL of cold lysis buffer to each pellet, and using a serological pipet, gently pipet up and down to break up clumps. Incubate resuspended cells in ice for an additional 30 mins (plunged into ice). During 30 min incubation, rinse and RNase-zap (Ambion) glass dounces (use loose pestle “A”), gently dry and place on ice until needed. Prepare RNase-free Eppendorf tubes for spinning and for batch storage. Add batch labels to 1.5-1.7 mL RNase-free microcentrifuge tubes (labeling scheme below). Each batch will have an extra 1.5-1.7 mL RNase-free microcentrifuge tube for 40 μL of lysate, label the top of this tube (labeling scheme below). After 30 min incubation, transfer all 8 mL of cell pellet to dounce. Cell lysis is complete after douncing 100 times. Aliquot cell lysis into 1.5-1.7 mL temporary-microcentrifuge tubes. Place tubes in centrifuge with “fins” out, and spin at 1,200×g for 5 mins. After the first spin use a 1 mL pipet to resuspend each tube and repeat spin. This acts as an additional lysis step, is more vigorous and increases lysate yield. During second spin get liquid N2 and a fresh conical tube on ice. After spin is complete, transfer supernatant (lysate) from microcentrifuge tubes into the 50 mL conical tube and keep on ice. Repeat steps 10-14 for all other cell pellets until completed. Once all cell lysate has been transferred to the 50 mL conical tube pipet to mix so the solution is homogenous. Transfer 1 mL of lysate into batch-labeled microcentrifuge tubes and flash freeze in liquid nitrogen. Be sure to pipet up and down to mix throughout transfer step. Place all tubes in the […] for long-term storage.
(§5) In vitro transcription-translation assay setup: Each assay includes a master mix containing lysate and shared components, a 96-well plate containing compound titrations for testing, a 96-well DNA plate with reporter constructs to be tested, 96-well skirted PCR plates, and 96-well flat-bottom, black, fluorescent assay plates. […]

MYC = assay: In vitro transcription-translation (IVTT) assay, MYC reporter
Summary of the method: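 Reporter: mCherry, P2A, then 3×FLAG-target peptide-sfGFP fusion, IRES-initiated; HeLa S3 lysate IVTT; cpd dilutions 30 μM−0.1 μM half-log in 100% DMSO (dilution-plate conc); DNA added last; 2 h, 30° C; PBS quench.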

ALK = assay: In vitro transcription-translation (IVTT) assay, ALK reporter
Excerpt: as §1, §2, §3, §4, §5

Row | Structure (SMILES) | IC50 (KRAS G12D) | IC50 (MYC) | IC50 (ALK)
1 | COc1ccc(C[C@H]2NC[C@H](O)[C@H]2OC(=O)NCC[C@H]2CN(Cc3ccccc3)CCN2Cc2ccccc2)cc1 [V187315] | > 30 µM | > 30 µM | > 30 µM
2 | COc1ccc(C[C@H]2NC[C@H](O)[C@H]2OC(=O)NCCN2CCC3(CNC3)C2)cc1 [V187644, (2R,3S,4S)-4-hydroxy-2-[(4-methoxyphenyl)methyl]pyrrolidin-3-yl N-(2-{2,6-diazaspiro[3.4]octan-6-yl}ethyl)carbamate; trifluoroacetic acid] | > 30 µM | > 30 µM | 20 to 30 µM
3 | CCN(Cc1ccccc1)Cc1nnc(NC(=O)O[C@@H]2[C@@H](O)CN[C@@H]2Cc2ccc(OC)cc2)s1 [V187597, (2R,3S,4S)-4-hydroxy-2-[(4-methoxyphenyl)methyl]pyrrolidin-3-yl N-(5-{[benzyl(ethyl)amino]methyl}-1,3,4-thiadiazol-2-yl)carbamate] | > 30 µM | > 30 µM | > 30 µM
4 | COc1ccc(C[C@H]2NC[C@H](O)[C@H]2OC(=O)N[C@@H]2CCNC2)cc1 [V187688, (2R,3S,4S)-4-hydroxy-2-(4-methoxybenzyl)pyrrolidin-3-yl ((R)-pyrrolidin-3-yl)carbamate] | > 30 µM | > 30 µM | > 30 µM
5 | COc1ccc(C[C@H]2NC[C@H](O)[C@H]2OC(=O)Nc2nsc(C)n2)cc1 [V187652, (2R,3S,4S)-4-hydroxy-2-[(4-methoxyphenyl)methyl]pyrrolidin-3-yl N-(5-methyl-1,2,4-thiadiazol-3-yl)carbamate; trifluoroacetic acid] | > 30 µM | > 30 µM | > 30 µM
6 | COc1ccc(C[C@H]2NC[C@H](O)[C@H]2OC(=O)NCCN2CCC2)cc1 [V187566, (2R,3S,4S)-4-hydroxy-2-[(4-methoxyphenyl)methyl]pyrrolidin-3-yl N-[2-(azetidin-1-yl)ethyl]carbamate; trifluoroacetic acid] | > 30 µM | > 30 µM | 10 to 20 µM
7 | COc1ccc(C[C@H]2NC[C@H](O)[C@H]2OC(=O)NCCN(C(C)C)C(C)C)cc1 [V187436, (2R,3S,4S)-4-hydroxy-2-[(4-methoxyphenyl)methyl]pyrrolidin-3-yl N-[2-(diisopropylamino)ethyl]carbamate] | > 30 µM | > 30 µM | > 30 µM
8 | CCN(CC)CCCCNC(=O)O[C@@H]1[C@@H](O)CN[C@@H]1Cc1ccc(OC)cc1 [V187385, (2R,3S,4S)-4-hydroxy-2-[(4-methoxyphenyl)methyl]pyrrolidin-3-yl N-[4-(diethylamino)butyl]carbamate; trifluoroacetic acid] | 20 to 30 µM | 10 to 20 µM | < 10 µM
9 | CCCCN(CCCC)CCCNC(=O)O[C@@H]1[C@@H](O)CN[C@@H]1Cc1ccc(OC)cc1 [V187386, (2R,3S,4S)-4-hydroxy-2-[(4-methoxyphenyl)methyl]pyrrolidin-3-yl N-[3-(dibutylamino)propyl]carbamate] | > 30 µM | > 30 µM | > 30 µM
10 | COc1ccc(C[C@H]2NC[C@H](O)[C@H]2OC(=O)NCCN2CCC3(CC(O)C3)C2)cc1 (stereo partly drawn) [V187642, (2R,3S,4S)-4-hydroxy-2-[(4-methoxyphenyl)methyl]pyrrolidin-3-yl N-(2-{2-hydroxy-6-azaspiro[3.4]octan-6-yl}ethyl)carbamate] | > 30 µM | > 30 µM | > 30 µM
11 | COc1ccc(C[C@H]2NC[C@H](O)[C@H]2OC(=O)NCCN2C(=O)CNC2=O)cc1 [V187659, (2R,3S,4S)-4-hydroxy-2-[(4-methoxyphenyl)methyl]pyrrolidin-3-yl N-[2-(2,5-dioxoimidazolidin-1-yl)ethyl]carbamate; trifluoroacetic acid] | > 30 µM | 20 to 30 µM | < 10 µM
12 | COc1ccc(C[C@H]2NC[C@H](O)[C@H]2OC(=O)NCCCCN)cc1 [V187592, (2R,3S,4S)-4-hydroxy-2-[(4-methoxyphenyl)methyl]pyrrolidin-3-yl N-(4-aminobutyl)carbamate; trifluoroacetic acid] | < 10 µM | < 10 µM | < 10 µM
13 | COCCN(CCNC(=O)O[C@@H]1[C@H](O)CN[C@H]1Cc1ccc(OC)cc1)CCOC [V187538, (2S,3S,4R)-4-hydroxy-2-[(4-methoxyphenyl)methyl]pyrrolidin-3-yl N-{2-[bis(2-methoxyethyl)amino]ethyl}carbamate; trifluoroacetic acid] | > 30 µM | 10 to 20 µM | < 10 µM
14 | COc1ccc(C[C@H]2NC[C@H](O)[C@H]2OC(=O)NC[C@@H]2CCCN2)cc1 [V187684, (2R,3S,4S)-4-hydroxy-2-[(4-methoxyphenyl)methyl]pyrrolidin-3-yl N-[(2S)-pyrrolidin-2-ylmethyl]carbamate; trifluoroacetic acid] | > 30 µM | 20 to 30 µM | > 30 µM
15 | CCCCN(CCCC)CCNC(=O)O[C@@H]1[C@@H](O)CN[C@@H]1Cc1ccc(OC)cc1 [V187382, (2R,3S,4S)-4-hydroxy-2-[(4-methoxyphenyl)methyl]pyrrolidin-3-yl N-[2-(dibutylamino)ethyl]carbamate] | > 30 µM | > 30 µM | > 30 µM
16 | COc1ccc(C[C@H]2NC[C@H](O)[C@H]2OC(=O)NCCCOCC(C)C)cc1 [V187437, (2R,3S,4S)-4-hydroxy-2-[(4-methoxyphenyl)methyl]pyrrolidin-3-yl N-[3-(2-methylpropoxy)propyl]carbamate] | 20 to 30 µM | 10 to 20 µM | < 10 µM
17 | COc1ccc(C[C@H]2NC[C@H](O)[C@H]2OC(=O)NCCN2CCCC2)cc1 [V187565, (2R,3S,4S)-4-hydroxy-2-[(4-methoxyphenyl)methyl]pyrrolidin-3-yl N-[2-(pyrrolidin-1-yl)ethyl]carbamate; trifluoroacetic acid] | > 30 µM | > 30 µM | < 10 µM
18 | COc1ccc(C[C@H]2NC[C@H](O)[C@H]2OC(=O)NCCN2C[C@@H](NC(=O)C3CC(F)(F)C3)[C@H](NC(=O)C3CC(F)(F)C3)C2)cc1 [V187554] | > 30 µM | > 30 µM | > 30 µM
19 | COc1ccc(C[C@H]2NC[C@H](O)[C@H]2OC(=O)NC2CC(F)(F)C2)cc1 [V187191, (2R,3S,4S)-4-hydroxy-2-[(4-methoxyphenyl)methyl]pyrrolidin-3-yl N-(3,3-difluorocyclobutyl)carbamate; trifluoroacetic acid] | > 30 µM | 20 to 30 µM | < 10 µM
20 | COc1ccc(C[C@H]2NC[C@H](O)[C@H]2OC(=O)NCCN2CC(O)(CNC(C)=O)C2)cc1 [V187582, (2R,3S,4S)-4-hydroxy-2-[(4-methoxyphenyl)methyl]pyrrolidin-3-yl N-{2-[3-(acetamidomethyl)-3-hydroxyazetidin-1-yl]ethyl}carbamate hydrochloride] | > 30 µM | > 30 µM | 10 to 20 µM
21 | COc1ccc(C[C@H]2NC[C@H](O)[C@H]2OC(=O)NCCN2CC(N)C2)cc1 [V187624, (2R,3S,4S)-4-hydroxy-2-[(4-methoxyphenyl)methyl]pyrrolidin-3-yl N-[2-(3-aminoazetidin-1-yl)ethyl]carbamate] | > 30 µM | > 30 µM | < 10 µM
22 | CCN(CC)CCOCCNC(=O)O[C@@H]1[C@@H](O)CN[C@@H]1Cc1ccc(OC)cc1 [V187625, (2R,3S,4S)-4-hydroxy-2-[(4-methoxyphenyl)methyl]pyrrolidin-3-yl N-{2-[2-(diethylamino)ethoxy]ethyl}carbamate; trifluoroacetic acid] | > 30 µM | > 30 µM | > 30 µM
